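96-well plates; 48 h exposure; 5 concentrations. Endpoints by linear interpolation between flanking doses. Not reached: highest tested concentration assigned. GI50: concentration for 50% inhibition of growth.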 Active and inactive are the calls of the source. Rule as the data show it: active = GI50 up to about 1.1 µM and inactive = higher.
Legend:
Experiment in all cases: DTP human tumour cell line panel, 48 h
[1] = tested on: SF-295
[2] = tested on: SNB-19
[3] = tested on: LOX IMVI
[4] = tested on: UACC-257
[5] = tested on: KM12
[6] = tested on: NCI-H522
[7] = tested on: SK-MEL-5
[8] = tested on: SN12C
[9] = tested on: SNB-78
[10] = tested on: HT-29
[11] = tested on: CAKI-1
[12] = tested on: 786-0
[13] = tested on: SK-OV-3
[14] = tested on: K562
[15] = tested on: UACC-62
[16] = tested on: SNB-75
[17] = tested on: A498
[18] = tested on: NCI-H23
[19] = tested on: RPMI-8226

Measured: GI50

C/C=C/C=C/[C@H]1Cc2cc(O)cc(O)c2O1
inactive: [1] 57.3 µM | [2] 80.7 µM | [3] 47.9 µM | [4] 28.4 µM | [5] 61 µM | [6] 36.6 µM | [7] 49.7 µM | [8] 55.3 µM | [9] > 100 µM | [10] 72.4 µM | [11] 58.9 µM | [12] > 100 µM | [13] > 100 µM | [14] 37.2 µM | [15] 22.9 µM | [16] > 100 µM | [17] > 100 µM | [18] 51.5 µM

O=C1N=C(Nc2ccccc2Cl)SC1C(=O)Nc1ccc([N+](=O)[O-])cc1[N+](=O)[O-] (stereo not given)
inactive: [1] > 100 µM | [2] > 100 µM | [19] > 100 µM | [4] > 100 µM | [5] > 100 µM | [6] > 100 µM | [7] > 100 µM | [8] > 100 µM | [9] > 100 µM | [10] > 100 µM | [11] > 100 µM | [12] > 100 µM | [13] > 100 µM | [14] > 100 µM | [15] > 100 µM | [16] 66.1 µM | [17] > 100 µM | [18] > 100 µM

[O-][S+]1c2ccccc2N=C(c2cccc3ccccc23)CC1c1cccc2ccccc12 (stereo not given)
inactive: [1] 32.1 µM | [2] 21 µM | [19] 19.8 µM | [3] 13.6 µM | [4] 17.1 µM | [5] 15.2 µM | [6] 15 µM | [7] 5.52 µM | [8] 16.6 µM | [9] 39 µM | [10] 25.7 µM | [11] 24.8 µM | [12] 24.5 µM | [13] 32.9 µM | [14] 30.8 µM | [15] 12.6 µM | [16] 23.1 µM | [17] 21.7 µM | [18] 20.3 µM

O=C(/C=C/c1ccccc1)c1ccc(NCc2nc3ccccc3[nH]2)cc1
inactive: [1] 3.48 µM | [2] 6.1 µM | [19] 2.29 µM | [3] 1.69 µM | [4] 3.73 µM | [5] 1.95 µM | [6] 4.14 µM | [7] 2.45 µM | [8] 5.33 µM | [9] 4.9 µM | [10] 2.58 µM | [11] 10.1 µM | [12] 3.81 µM | [13] 6.37 µM | [14] 2.51 µM | [15] 8.05 µM | [16] 4.61 µM | [17] 5.24 µM | [18] 2.55 µM

O=C1[C@H]2ON(c3ccccc3)C(c3ccc(Cl)cc3)[C@H]2C(=O)N1c1ccc(Cc2ccc(N3C(=O)[C@@H]4ON(c5ccccc5)C(c5ccc(Cl)cc5)[C@@H]4C3=O)cc2)cc1 (stereo not given in full)
inactive: [1] > 100 µM | [2] > 100 µM | [19] > 100 µM | [3] > 100 µM | [4] > 100 µM | [5] > 100 µM | [6] > 100 µM | [7] 61.7 µM | [8] > 100 µM | [9] > 100 µM | [10] > 100 µM | [11] > 100 µM | [12] > 100 µM | [13] > 100 µM | [14] > 100 µM | [15] > 100 µM | [16] > 100 µM | [17] > 100 µM | [18] > 100 µM

O=C(OCc1nc2ccc(Br)cc2c(=O)n1-c1ccccc1)c1ccccc1O
inactive: [1] > 100 µM | [19] 29.4 µM | [3] > 100 µM | [4] 61.5 µM | [5] > 100 µM | [6] 38.1 µM | [7] 18.1 µM | [8] > 100 µM | [9] > 100 µM | [10] 84.9 µM | [11] 39.8 µM | [12] 74.8 µM | [13] > 100 µM | [14] 54.7 µM | [15] > 100 µM | [16] 28.4 µM | [17] 58.3 µM | [18] 37.3 µM

CCCC(Sc1ccccc1)P(=O)(c1ccccc1)c1ccccc1 (stereo not given)
inactive: [1] 27.8 µM | [2] > 100 µM | [19] 19 µM | [3] 35.6 µM | [4] 35.1 µM | [5] 38.7 µM | [6] 31.5 µM | [7] 25.4 µM | [8] 43.5 µM | [9] 37.6 µM | [11] 42.3 µM | [12] 37.7 µM | [13] 22.7 µM | [14] 29.9 µM | [15] 15.1 µM | [16] 28.6 µM | [17] 28.3 µM | [18] 35.6 µM

Cn1c2cc(O)cc(O)c2c(=O)c2c([N+](=O)[O-])cccc21
inactive: [1] > 100 µM | [2] > 100 µM | [19] > 100 µM | [3] > 100 µM | [4] > 100 µM | [5] > 100 µM | [6] > 100 µM | [7] > 100 µM | [8] > 100 µM | [9] > 100 µM | [10] > 100 µM | [11] > 100 µM | [12] > 100 µM | [13] > 100 µM | [14] > 100 µM | [15] > 100 µM | [16] > 100 µM | [17] > 100 µM | [18] > 100 µM

[O-][S+]1Cc2ccccc2CS1 (stereo not given)
inactive: [1] 31.6 µM | [2] > 100 µM | [19] 13.9 µM | [3] 7.46 µM | [4] 14.7 µM | [5] 35.1 µM | [6] 6.81 µM | [7] 43.2 µM | [8] 14 µM | [9] 14.7 µM | [10] 15.8 µM | [11] 13.9 µM | [12] 15.7 µM | [13] 52.8 µM | [14] 17.9 µM | [15] 13.2 µM | [16] 20.3 µM | [17] 76.6 µM | [18] 14.1 µM

CC(C)CS(=O)(=O)/C(=C(\c1ccc(Br)cc1)S(=O)(=O)CC(C)C)c1ccc(Br)cc1
inactive: [1] > 100 µM | [2] > 100 µM | [19] > 100 µM | [3] > 100 µM | [4] > 100 µM | [5] > 100 µM | [6] > 100 µM | [7] 1.41 µM | [8] > 100 µM | [9] 97.7 µM | [10] > 100 µM | [11] > 100 µM | [12] > 100 µM | [14] > 100 µM | [15] > 100 µM | [16] 38.3 µM | [17] 16.3 µM | [18] > 100 µM
